Source: ChEMBL document CHEMBL4041509, “Structure-activity relationship study of novel 2-aminobenzofuran derivatives as P-glycoprotein inhibitors” (Eur J Med Chem, 2017)
Active and inactive are the calls of the source. The rule behind the calls is not given here.

Experiments:
HEK293 [1] = assay: Potentiation of vincristine-induced cytotoxicity against human Flp-In-293 cells at 2.5 uM by SRB assay relative to control; format: functional
[2] = molecular target: T1, ATP-dependent translocase ABCB1 (Homo sapiens, UniProt P08183); assay: Inhibition of ABCB1 (unknown origin) expressed in human Flp-In-293 cells assessed as potentiation of doxorubicin-induced cytotoxicity at 1 uM by SRB assay relative to control; format: cell-based
T1 sequence (P08183 whole entry): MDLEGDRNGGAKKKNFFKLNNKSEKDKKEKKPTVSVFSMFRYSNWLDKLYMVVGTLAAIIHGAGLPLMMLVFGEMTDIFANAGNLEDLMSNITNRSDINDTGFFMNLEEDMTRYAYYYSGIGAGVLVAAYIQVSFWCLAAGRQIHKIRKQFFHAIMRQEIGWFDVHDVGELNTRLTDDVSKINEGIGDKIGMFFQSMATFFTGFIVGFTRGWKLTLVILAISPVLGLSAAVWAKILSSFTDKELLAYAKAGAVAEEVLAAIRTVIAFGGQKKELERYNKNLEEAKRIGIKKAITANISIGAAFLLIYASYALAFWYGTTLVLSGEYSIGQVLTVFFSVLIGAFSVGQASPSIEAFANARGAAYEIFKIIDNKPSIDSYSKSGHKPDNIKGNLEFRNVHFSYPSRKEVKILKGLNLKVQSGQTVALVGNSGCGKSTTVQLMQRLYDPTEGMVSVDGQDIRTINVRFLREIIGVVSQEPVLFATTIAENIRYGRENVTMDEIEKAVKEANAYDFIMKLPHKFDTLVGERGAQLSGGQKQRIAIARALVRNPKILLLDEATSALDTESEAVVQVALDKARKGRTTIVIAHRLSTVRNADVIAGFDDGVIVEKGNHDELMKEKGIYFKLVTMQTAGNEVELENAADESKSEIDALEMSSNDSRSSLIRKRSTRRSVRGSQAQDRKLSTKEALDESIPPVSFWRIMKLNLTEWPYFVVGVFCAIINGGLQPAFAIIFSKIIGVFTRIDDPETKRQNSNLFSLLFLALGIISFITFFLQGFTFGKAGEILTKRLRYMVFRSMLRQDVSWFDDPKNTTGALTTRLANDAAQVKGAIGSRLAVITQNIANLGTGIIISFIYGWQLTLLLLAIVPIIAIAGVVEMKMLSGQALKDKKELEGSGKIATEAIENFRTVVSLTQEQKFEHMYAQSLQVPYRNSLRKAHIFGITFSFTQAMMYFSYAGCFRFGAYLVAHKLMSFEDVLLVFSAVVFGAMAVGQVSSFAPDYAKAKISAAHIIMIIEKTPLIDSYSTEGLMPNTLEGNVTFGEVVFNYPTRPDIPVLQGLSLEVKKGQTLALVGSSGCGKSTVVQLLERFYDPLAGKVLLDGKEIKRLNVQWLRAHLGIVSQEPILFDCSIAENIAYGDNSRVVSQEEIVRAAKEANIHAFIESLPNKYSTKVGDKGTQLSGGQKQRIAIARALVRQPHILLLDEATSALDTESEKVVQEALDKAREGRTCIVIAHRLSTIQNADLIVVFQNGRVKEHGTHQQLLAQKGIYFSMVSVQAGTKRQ

HEK293 [3] = assay: Effect on ABCB1 mRNA expression in human Flp-In-293 cells expressing ABCB1 at 5 uM after 72 hrs by qRT-PCR method; format: functional, cell-based
Homo sapiens [4] = organism: Homo sapiens; assay: Inhibition of P-gp in human KBVIN cells assessed as potentiation of vincristine-induced cytotoxicity at 2.5 uM by SRB assay relative to control; format: cell-based
HEK293 [5] = assay: Potentiation of vincristine-induced cytotoxicity against human Flp-In-293 cells at 1 uM by SRB assay relative to control; format: functional
[6] = molecular target: T1, ATP-dependent translocase ABCB1; assay: Inhibition of ABCB1 (unknown origin) expressed in Flp-In-293 cells assessed as increase in calcein-AM uptake at 10 uM preincubated for 30 mins followed by calcein-AM addition measured after 30 mins by fluorescence spectrometric method relative to control; format: cell-based; conditions: 0.5 h
Homo sapiens [7] = organism: Homo sapiens; assay: Inhibition of P-gp in human HeLaS3 cells assessed as potentiation of doxorubicin-induced cytotoxicity at 1 uM by SRB assay relative to control; format: cell-based
HEK293 [8] = assay: Potentiation of paclitaxel-induced cytotoxicity against human Flp-In-293 cells at 1 uM by SRB assay relative to control; format: functional
HEK293 [9] = assay: Effect on ABCB1 mRNA expression in human Flp-In-293 cells at 5 uM after 72 hrs by qRT-PCR method; format: functional, cell-based
[10] = molecular target: T1, ATP-dependent translocase ABCB1; assay: Inhibition of ABCB1 (unknown origin) expressed in human Flp-In-293 cells assessed as potentiation of vincristine-induced cytotoxicity at 1 uM by SRB assay relative to control; format: cell-based
HEK293 [11] = assay: Potentiation of doxorubicin-induced cytotoxicity against human Flp-In-293 cells at 2.5 uM by SRB assay relative to control; format: functional
Homo sapiens [12] = organism: Homo sapiens; assay: Inhibition of P-gp in human HeLaS3 cells assessed as potentiation of paclitaxel-induced cytotoxicity by SRB assay; format: cell-based
Homo sapiens [13] = organism: Homo sapiens; assay: Inhibition of P-gp in human HeLaS3 cells assessed as potentiation of vincristine-induced cytotoxicity at 2.5 uM by SRB assay relative to control; format: cell-based
Homo sapiens [14] = organism: Homo sapiens; assay: Inhibition of P-gp in human KBVIN cells assessed as potentiation of paclitaxel-induced cytotoxicity by SRB assay; format: cell-based
Homo sapiens [15] = organism: Homo sapiens; assay: Inhibition of P-gp in human KBVIN cells assessed as potentiation of vincristine-induced cytotoxicity at 1 uM by SRB assay relative to control; format: cell-based
HeLa S3 = assay: Cytotoxicity against human HeLaS3 assessed as reduction in cell viability by SRB assay; format: cell-based
Homo sapiens [16] = organism: Homo sapiens; assay: Inhibition of P-gp in human HeLaS3 cells assessed as potentiation of doxorubicin-induced cytotoxicity at 2.5 uM by SRB assay relative to control; format: cell-based
Homo sapiens [17] = organism: Homo sapiens; assay: Inhibition of P-gp in human KBVIN cells assessed as potentiation of doxorubicin-induced cytotoxicity by SRB assay; format: cell-based
Homo sapiens [18] = organism: Homo sapiens; assay: Inhibition of P-gp in human KBVIN cells assessed as potentiation of doxorubicin-induced cytotoxicity at 1 uM by SRB assay relative to control; format: cell-based
Homo sapiens [19] = organism: Homo sapiens; assay: Inhibition of P-gp in human HeLaS3 cells assessed as potentiation of paclitaxel-induced cytotoxicity at 2.5 uM by SRB assay relative to control; format: cell-based
HEK293 [20] = assay: Cytotoxicity against human Flp-In-293 cells assessed as reduction in cell viability by SRB assay; format: cell-based
[21] = Cytotoxicity against human KBVIN assessed as reduction in cell viability by SRB assay; format: cell-based
[22] = molecular target: T1, ATP-dependent translocase ABCB1; assay: Potency index, ratio of compound effect to verapamil effect for inhibition of ABCB1 (unknown origin) expressed in Flp-In-293 cells assessed as increase in calcein-AM uptake at 5 uM preincubated for 30 mins followed by calcein-AM addition measured after 30 mins by fluorescence spectrometric method; format: cell-based; conditions: 0.5 h
[23] = molecular target: T1, ATP-dependent translocase ABCB1; assay: Inhibition of ABCB1 (unknown origin) expressed in human Flp-In-293 cells assessed as potentiation of vincristine-induced cytotoxicity by SRB assay; format: cell-based
Homo sapiens [24] = organism: Homo sapiens; assay: Inhibition of P-gp in human HeLaS3 cells assessed as potentiation of vincristine-induced cytotoxicity at 1 uM by SRB assay relative to control; format: cell-based
HEK293 [25] = assay: Potentiation of paclitaxel-induced cytotoxicity against human Flp-In-293 cells at 2.5 uM by SRB assay relative to control; format: functional
[26] = molecular target: T1, ATP-dependent translocase ABCB1; assay: Inhibition of ABCB1 (unknown origin) expressed in human Flp-In-293 cells assessed as potentiation of doxorubicin-induced cytotoxicity by SRB assay; format: cell-based
Homo sapiens [27] = organism: Homo sapiens; assay: Inhibition of P-gp in human KBVIN cells assessed as potentiation of paclitaxel-induced cytotoxicity at 2.5 uM by SRB assay relative to control; format: cell-based
Homo sapiens [28] = organism: Homo sapiens; assay: Inhibition of P-gp in human HeLaS3 cells assessed as potentiation of paclitaxel-induced cytotoxicity at 1 uM by SRB assay relative to control; format: cell-based
[29] = molecular target: T1, ATP-dependent translocase ABCB1; assay: Inhibition of ABCB1 (unknown origin) expressed in human Flp-In-293 cells assessed as potentiation of paclitaxel-induced cytotoxicity by SRB assay; format: cell-based
HEK293 [30] = assay: Potentiation of doxorubicin-induced cytotoxicity against human Flp-In-293 cells at 1 uM by SRB assay relative to control; format: functional
[31] = molecular target: T1, ATP-dependent translocase ABCB1; assay: Inhibition of ABCB1 (unknown origin) expressed in human Flp-In-293 cells assessed as potentiation of paclitaxel-induced cytotoxicity at 1 uM by SRB assay relative to control; format: cell-based
HEK293 [32] = assay: Cytotoxicity against human Flp-In-293 cells expressing MDR1 assessed as reduction in cell viability by SRB assay; format: ADME, cell-based
Homo sapiens [33] = organism: Homo sapiens; assay: Inhibition of P-gp in human HeLaS3 cells assessed as potentiation of vincristine-induced cytotoxicity by SRB assay; format: cell-based
[34] = molecular target: T1, ATP-dependent translocase ABCB1; assay: Inhibition of ABCB1 (unknown origin) expressed in human Flp-In-293 cells assessed as potentiation of paclitaxel-induced cytotoxicity at 2.5 uM by SRB assay relative to control; format: cell-based
Homo sapiens [35] = organism: Homo sapiens; assay: Inhibition of P-gp in human HeLaS3 cells assessed as potentiation of doxorubicin-induced cytotoxicity by SRB assay; format: cell-based
Homo sapiens [36] = organism: Homo sapiens; assay: Inhibition of P-gp in human KBVIN cells assessed as potentiation of paclitaxel-induced cytotoxicity at 1 uM by SRB assay relative to control; format: cell-based
[37] = molecular target: T1, ATP-dependent translocase ABCB1; assay: Inhibition of ABCB1 (unknown origin) expressed in human Flp-In-293 cells assessed as potentiation of doxorubicin-induced cytotoxicity at 2.5 uM by SRB assay relative to control; format: cell-based
[38] = molecular target: T1, ATP-dependent translocase ABCB1; assay: Inhibition of ABCB1 (unknown origin) expressed in Flp-In-293 cells assessed as increase in calcein-AM uptake at 5 uM preincubated for 30 mins followed by calcein-AM addition measured after 30 mins by fluorescence spectrometric method relative to control; format: cell-based; conditions: 0.5 h
Homo sapiens [39] = organism: Homo sapiens; assay: Inhibition of P-gp in human KBVIN cells assessed as potentiation of doxorubicin-induced cytotoxicity at 2.5 uM by SRB assay relative to control; format: cell-based
Homo sapiens [40] = organism: Homo sapiens; assay: Inhibition of P-gp in human KBVIN cells assessed as potentiation of vincristine-induced cytotoxicity by SRB assay; format: cell-based
[41] = molecular target: T1, ATP-dependent translocase ABCB1; assay: Inhibition of ABCB1 (unknown origin) expressed in human Flp-In-293 cells assessed as potentiation of vincristine-induced cytotoxicity at 2.5 uM by SRB assay relative to control; format: cell-based

SMILES: CCN(CC)CCOc1cc(-c2ccc(OC)c(OC)c2)cc2oc(N)c(-c3cccs3)c12
- fold change (FC) (HEK293 [1]): 8.57
- fold change (FC) [2]: 3.17
- Activity (HEK293 [3]): inactive
- fold change (FC) (Homo sapiens [4]): 246
- fold change (FC) (HEK293 [5]): 7.01
- fold change (FC) [6]: 11.34
- fold change (FC) (Homo sapiens [7]): 0.8
- fold change (FC) (HEK293 [8]): 1.35
- Activity (HEK293 [9]): inactive
- fold change (FC) [10]: 3.37
- fold change (FC) (HEK293 [11]): 1.09
- inhibition (Homo sapiens [12]): Dose-dependent effect
- fold change (FC) (Homo sapiens [13]): 1.21
- inhibition (Homo sapiens [14]): Dose-dependent effect
- fold change (FC) (Homo sapiens [15]): 240
- IC50 (HeLa S3): 21.5 µM
- fold change (FC) (Homo sapiens [16]): 0.93
- inhibition (Homo sapiens [17]): Dose-dependent effect
- fold change (FC) (Homo sapiens [18]): 1.39
- fold change (FC) (Homo sapiens [19]): 3.85
- IC50 (HEK293 [20]): 34.9 µM
- IC50 [21]: 18.5 µM
- Ratio [22]: 3.6
- inhibition (INH) [23]: Dose-dependent effect
- fold change (FC) (Homo sapiens [24]): 1.23
- fold change (FC) (HEK293 [25]): 1.47
- inhibition (INH) [26]: Dose-dependent effect
- fold change (FC) (Homo sapiens [27]): 38.7
- fold change (FC) (Homo sapiens [28]): 5.49
- inhibition (INH) [29]: Dose-dependent effect
- fold change (FC) (HEK293 [30]): 1.03
- fold change (FC) [31]: 2.49
- IC50 (HEK293 [32]): 31.2 µM
- inhibition (Homo sapiens [33]): Dose-dependent effect
- fold change (FC) [34]: 13.68
- inhibition (Homo sapiens [35]): Dose-dependent effect
- fold change (FC) (Homo sapiens [36]): 5.11
- fold change (FC) [37]: 26.43
- fold change (FC) [38]: 11.12
- fold change (FC) (Homo sapiens [39]): 5.16
- inhibition (Homo sapiens [40]): Dose-dependent effect
- fold change (FC) [41]: 17.95

SMILES: COc1ccc(-c2cc(OCCN3CCCC3)c3c(-c4cccs4)c(N)oc3c2)cc1
- fold change (FC) (HEK293 [1]): 7.15
- fold change (FC) [2]: 2.65
- Activity (HEK293 [3]): inactive
- fold change (FC) (Homo sapiens [4]): 260
- fold change (FC) (HEK293 [5]): 1.95
- fold change (FC) [6]: 10.4
- fold change (FC) (Homo sapiens [7]): 1.1
- fold change (FC) (HEK293 [8]): 0.98
- Activity (HEK293 [9]): inactive
- fold change (FC) [10]: 2.58
- fold change (FC) (HEK293 [11]): 0.97
- inhibition (Homo sapiens [12]): Dose-dependent effect
- fold change (FC) (Homo sapiens [13]): 1.13
- inhibition (Homo sapiens [14]): Dose-dependent effect
- fold change (FC) (Homo sapiens [15]): 177
- IC50 (HeLa S3): 38.1 µM
- fold change (FC) (Homo sapiens [16]): 1.47
- inhibition (Homo sapiens [17]): Dose-dependent effect
- fold change (FC) (Homo sapiens [18]): 1.37
- fold change (FC) (Homo sapiens [19]): 4.06
- IC50 (HEK293 [20]): 33.5 µM
- IC50 [21]: 35.5 µM
- inhibition (INH) [23]: Dose-dependent effect
- fold change (FC) (Homo sapiens [24]): 1.08
- fold change (FC) (HEK293 [25]): 1.39
- inhibition (INH) [26]: Dose-dependent effect
- fold change (FC) (Homo sapiens [27]): 14.7
- fold change (FC) (Homo sapiens [28]): 3.69
- inhibition (INH) [29]: Dose-dependent effect
- fold change (FC) (HEK293 [30]): 0.98
- fold change (FC) [31]: 1.18
- IC50 (HEK293 [32]): 36.4 µM
- inhibition (Homo sapiens [33]): Dose-dependent effect
- fold change (FC) [34]: 10.03
- inhibition (Homo sapiens [35]): Dose-dependent effect
- fold change (FC) (Homo sapiens [36]): 2.8
- fold change (FC) [37]: 6.14
- fold change (FC) [38]: 6.78
- fold change (FC) (Homo sapiens [39]): 1.94
- inhibition (Homo sapiens [40]): Dose-dependent effect
- fold change (FC) [41]: 9.07
